Assay results reported in PubChem BioAssay AID272 (DTP/NCI, 2004).
“And” between values parts separate entries of the source, which are not always exact repeats. Equal values may be shown once. Inconclusive results are not listed.

Tested on: Lewis lung carcinoma i.m., BDF1 mice, T/C %
Experiment: NCI In Vivo Anticancer Drug Screen. Data for tumor model Lewis Lung Carcinoma (intramuscular) in B6D2F1 (BDF1) mice
Conditions: endpoint: median survival time, higher = longer survival
Procedure, shortened: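 Tumour-bearing mice were dosed with compound, and either their survival or their tumour size was measured. Results were expressed relative to vehicle-treated controls as T/C.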

SMILES: Cc1c(N)nc([C@H](CC(N)=O)NC[C@H](N)C(N)=O)nc1C(=O)N[C@H](C(=O)N[C@H](C)[C@@H](O)[C@H](C)C(=O)N[C@H](C(=O)NCCc1nc(-c2nc(C(=O)NCCC[S+](C)C)cs2)cs1)[C@@H](C)O)C(OC1OC(CO)C(O)C(O)C1OC1OC(CO)C(O)C(OC(N)=O)C1O)c1cnc[nH]1 (stereo partly specified)
- T/C (dose: 5.0 mg/kg/injection, schedule: Q01DX011 (ip), vehicle: saline): 150 % of control
- T/C (dose: 5.0 mg/kg/injection, schedule: Q01DX014 (ip), vehicle: saline): 123 % of control
- T/C (dose: 5.0 mg/kg/injection, schedule: Q09DX009 (ip), vehicle: saline): 150 % of control
- T/C (dose: 6.5 mg/kg/injection, schedule: Q01DX011 (ip), vehicle: saline): 158 % of control
- T/C (dose: 7.5 mg/kg/injection, schedule: Q01DX011 (sc), vehicle: saline): 153 % of control
- T/C (dose: 8.0 mg/kg/injection, schedule: Q01DX011 (ip), vehicle: saline): 150 % of control
- T/C (dose: 8.4 mg/kg/injection, schedule: Q01DX004 (ip), vehicle: saline): 123 % of control
- T/C (dose: 8.4 mg/kg/injection, schedule: Q01DX009 (ip), vehicle: none): 113 % of control and 115 % of control
- T/C (dose: 8.4 mg/kg/injection, schedule: Q09DX009 (ip), vehicle: saline): 116 % of control
- T/C (dose: 10.0 mg/kg/injection, schedule: Q01DX011 (ip), vehicle: saline): 167 % of control
- T/C (dose: 10.0 mg/kg/injection, schedule: Q01DX014 (ip), vehicle: saline): 124 % of control
- T/C (dose: 10.0 mg/kg/injection, schedule: Q04DX003 (ip), vehicle: saline): 107 % of control and 108 % of control
- T/C (dose: 10.8 mg/kg/injection, schedule: Q01DX011 (ip), vehicle: saline): 166 % of control
- T/C (dose: 12.5 mg/kg/injection, schedule: Q04DX003 (ip), vehicle: saline): 122 % of control
- T/C (dose: 14.0 mg/kg/injection, schedule: Q01DX009 (ip), vehicle: none): 159 % of control
- T/C (dose: 14.0 mg/kg/injection, schedule: Q04DX003 (ip), vehicle: saline): 112 % of control
- T/C (dose: 15.0 mg/kg/injection, schedule: Q01DX011 (sc), vehicle: saline): 161 % of control
- T/C (dose: 16.0 mg/kg/injection, schedule: Q01DX011 (ip), vehicle: saline): 150 % of control
- T/C (dose: 18.0 mg/kg/injection, schedule: Q01DX011 (ip), vehicle: saline): 152 % of control and 170 % of control
- T/C (dose: 18.0 mg/kg/injection, schedule: Q04DX003 (ip), vehicle: saline): 124 % of control
- T/C (dose: 20.0 mg/kg/injection, schedule: Q01DX011 (ip), vehicle: saline): 165 % of control
- T/C (dose: 20.0 mg/kg/injection, schedule: Q01DX014 (ip), vehicle: saline): 75 % of control
- T/C (dose: 20.0 mg/kg/injection, schedule: Q04DX003 (ip), vehicle: saline): 157 % of control and 160 % of control
- T/C (dose: 23.0 mg/kg/injection, schedule: Q01DX009 (ip), vehicle: none): 64 % of control and 95 % of control
- T/C (dose: 23.0 mg/kg/injection, schedule: Q04DX003 (ip), vehicle: saline): 112 % of control
- T/C (dose: 23.0 mg/kg/injection, schedule: Q09DX009 (ip), vehicle: saline): 169 % of control
- T/C (dose: 25.0 mg/kg/injection, schedule: Q01DX001 (ip), vehicle: saline): 107 % of control
- T/C (dose: 30.0 mg/kg/injection, schedule: Q01DX011 (ip), vehicle: saline): 166 % of control
- T/C (dose: 36.0 mg/kg/injection, schedule: Q01DX001 (ip), vehicle: saline): 124 % of control
- T/C (dose: 39.0 mg/kg/injection, schedule: Q01DX004 (ip), vehicle: saline): 54 % of control
- T/C (dose: 39.0 mg/kg/injection, schedule: Q04DX003 (ip), vehicle: saline): 103 % of control and 120 % of control
- T/C (dose: 40.0 mg/kg/injection, schedule: Q01DX014 (ip), vehicle: saline): 48 % of control
- T/C (dose: 40.0 mg/kg/injection, schedule: Q04DX003 (ip), vehicle: saline): 97 % of control
- T/C (dose: 51.0 mg/kg/injection, schedule: Q01DX001 (ip), vehicle: saline): 122 % of control
- T/C (dose: 65.0 mg/kg/injection, schedule: Q04DX003 (ip), vehicle: saline): 108 % of control
- T/C (dose: 80.0 mg/kg/injection, schedule: Q04DX003 (ip), vehicle: saline): 60 % of control
